Columns and labels:
Test in all cases: Cell growth assay
Type in all cases: cell-based
SKOV-3 = settings: Homo sapiens, SK-OV-3, 72 h; SKOV-3, RAF WT, RAS WT, 3-day; read-out: gIC50
Outline: (§1)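 Cells were read with CellTiter-Glo reagent at time zero and after 72 h of exposure. From the change in signal, the concentration giving half-maximal growth inhibition (gIC50) was calculated.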

SCC-9 = settings: Homo sapiens, 72 h; SCC-9, RAF WT, RAS WT, 3-day; read-out: gIC50
Outline: as §1

OVCAR-4 = settings: Homo sapiens, 72 h; OVCAR-4, RAF WT, RAS WT, 3-day; read-out: gIC50
Outline: as §1

P3HR-1 = settings: Homo sapiens, 72 h; P3HR-1, RAF WT, RAS WT, 3-day; read-out: gIC50
Outline: as §1

YAPC = settings: Homo sapiens, 72 h, RAF WT, RAS WT, 3-day, read-out: gIC50
Outline: as §1

GDM-1 = settings: Homo sapiens, 72 h; GDM-1, RAF WT, RAS WT, 3-day; read-out: gIC50
Outline: as §1

MiaPaCa = settings: Homo sapiens, MIA PaCa-2, 72 h, RAF WT, RAS WT, 3-day, read-out: gIC50
Outline: as §1

BT-20 = settings: Homo sapiens, 72 h; BT-20, RAF WT, RAS WT, 3-day; read-out: gIC50
Outline: as §1

SW-780 = settings: Homo sapiens, SW780, 72 h; SW-780, RAF WT, RAS WT, 3-day; read-out: gIC50
Outline: as §1

SW579 = settings: Homo sapiens, 72 h; SW579, RAF WT, RAS WT, 3-day; read-out: gIC50
Outline: as §1

ES-2 = settings: Homo sapiens, 72 h; ES-2, BRAF(V600E), RAS WT, 3-day; read-out: gIC50
Outline: as §1

EFM-19 = settings: Homo sapiens, 72 h; EFM-19, RAF WT, RAS WT, 3-day; read-out: gIC50
Outline: as §1

NCI-H1792 = settings: Homo sapiens, 72 h; NCI-H1792, RAF WT, RAS WT, 3-day; read-out: gIC50
Outline: as §1

SN12C = settings: Homo sapiens, 72 h, RAF WT, RAS WT, 3-day, read-out: gIC50
Outline: as §1

G401 = settings: Homo sapiens, G-401, 72 h; G401, RAF WT, RAS WT, 3-day; read-out: gIC50
Outline: as §1

BC-3 = settings: Homo sapiens, 72 h; BC-3, RAF WT, RAS WT, 3-day; read-out: gIC50
Outline: as §1

HCC-1954 = settings: Homo sapiens, HCC1954, 72 h; HCC-1954, RAF WT, RAS WT, 3-day; read-out: gIC50
Outline: as §1

PC-3 = settings: Homo sapiens, 72 h; PC-3, RAF WT, RAS WT, 3-day; read-out: gIC50
Outline: as §1

OE-33 = settings: Homo sapiens, OE33, 72 h; OE-33, RAF WT, RAS WT, 3-day; read-out: gIC50
Outline: as §1

SW-837 = settings: Homo sapiens, SW837, 72 h; SW-837, RAF WT, KRAS(G12C), 3-day; read-out: gIC50
Outline: as §1

HL-60 = settings: Homo sapiens, 72 h; HL-60, RAF WT, RAS WT, 3-day; read-out: gIC50
Outline: as §1

ACHN = settings: Homo sapiens, 72 h, RAF WT, RAS WT, 3-day, read-out: gIC50
Outline: as §1

A172 = settings: Homo sapiens, A 172, 72 h; A172, RAF WT, RAS WT, 3-day; read-out: gIC50
Outline: as §1

SNU-5 = settings: Homo sapiens, 72 h; SNU-5, RAF WT, RAS WT, 3-day; read-out: gIC50
Outline: as §1

HeLa = settings: Homo sapiens, 72 h, RAF WT, RAS WT, 3-day, read-out: gIC50
Outline: as §1

HMCB = settings: Homo sapiens, 72 h, RAF WT, RAS WT, 3-day, read-out: gIC50
Outline: as §1

CHP-212 = settings: Homo sapiens, 72 h; CHP-212, RAF WT, NRAS(Q61K), 3-day; read-out: gIC50
Outline: as §1

NCI-N87 = settings: Homo sapiens, 72 h; NCI-N87, RAF WT, RAS WT, 3-day; read-out: gIC50
Outline: as §1

22Rv1 = settings: Homo sapiens, 72 h; 22Rv1, RAF WT, RAS WT, 3-day; read-out: gIC50
Outline: as §1

KPL-1 = settings: Homo sapiens, 72 h; KPL-1, RAF WT, RAS WT, 3-day; read-out: gIC50
Outline: as §1

NCI-H292 = settings: Homo sapiens, 72 h; NCI-H292, RAF WT, RAS WT, 3-day; read-out: gIC50
Outline: as §1

CHL-1 = settings: Homo sapiens, 72 h; CHL-1, RAF WT, RAS WT, 3-day; read-out: gIC50
Outline: as §1

In the case of `CC(C)(C)c1nc(-c2cccc(NS(=O)(=O)c3c(F)cccc3F)c2F)c(-c2ccnc(N)n2)s1` [dabrafenib], the IC50 (SKOV-3) is reported as over 10 µM, the IC50 (SCC-9) is reported as over 10 µM and the IC50 (OVCAR-4) is reported as over 10 µM. The IC50 (P3HR-1) was over 10 µM, the IC50 (YAPC) was over 10 µM and the IC50 (GDM-1) was 2 µM. For the same compound, the IC50 (MiaPaCa) was over 10 µM, the IC50 (BT-20) was over 10 µM and the IC50 (SW-780) was over 10 µM. It also gave an IC50 (SW579) of over 10 µM, an IC50 (ES-2) of 0.053 µM and an IC50 (EFM-19) of over 10 µM. For the same compound, the IC50 (NCI-H1792) was over 10 µM, the IC50 (SN12C) was over 10 µM and the IC50 (G401) was over 10 µM. The IC50 (BC-3) was 0.277 µM, the IC50 (HCC-1954) was over 10 µM and the IC50 (PC-3) was over 10 µM. The IC50 (OE-33) was over 10 µM, the IC50 (SW-837) was over 10 µM and the IC50 (HL-60) was 2.18 µM. The IC50 (ACHN) was 0.294 µM, the IC50 (A172) was over 10 µM and the IC50 (SNU-5) was over 10 µM. For the same compound, the IC50 (HeLa) was over 10 µM, the IC50 (HMCB) was over 10 µM and the IC50 (CHP-212) was over 10 µM. The IC50 (NCI-N87) was over 10 µM, the IC50 (22Rv1) was over 10 µM and the IC50 (KPL-1) was over 10 µM. The IC50 (NCI-H292) was over 10 µM and the IC50 (CHL-1) was over 10 µM.

From article PMC3701070 (PLoS ONE, 2013)
